Legend:
[1] = tested on: Aspergillus fumigatus B42928; test: Antifungal activity in vitro (resazurin susceptibility screen), Inf. E; assay type: cell-based; settings: Aspergillus fumigatus, B42928, Aspergillus fumigatus B42928; 27 °C, 48 hours, resa time 17 hours
Experimental: (§1) The standard susceptibility screen was performed in 96-well plates (U-bottom, Greiner Bio-One). Serial dilutions (2-fold or 4-fold) of 20 mM compound stock solutions were made in 100% DMSO, followed by an intermediate dilution step in water. These serial dilutions (10 μl) were then spotted onto test-plates that could be stored in the dark at 4° C. for a maximum period of 2 weeks. An adequate broad dose-range was included with 64 μM as the highest in-test concentration. The culture medium RPMI-1640 was supplemented with L-glutamine, 2% glucose and buffered with 3-(N-morpholino)-propanesulfonic acid (MOPS) at pH 7.0±0.1. The different fungal species/isolates (Table 3a) were cryopreserved and 1/1000 diluted in medium just prior to use. A standard inoculum of 200 μl containing 10^3 colony-forming unit (cfu) was then added to each well. A positive control (100% growth=fungal culture without antifungal) and a negative control (0% growth=RPMI-MOPS medium) were included on each plate. Optimal incubation time and temperature were dependent on the fungal species and vary from 24 h for yeasts (37° C.) to one week or more for dermatophytes (27° C.). Inhibition of fungal growth was measured after adding 10 μl of 0.005% (w/v) resazurin (Sigma Aldrich) to each well, based on the principle that living cells convert the non-fluorescent blue resazurin into the pink and fluorescent resorufin, allowing fluorimetric reading (λhd ex 550 nm and μem 590 nm) after an additional incubation period (‘resa’ time mentioned in Table 3a). [table]

[2] = tested on: Cryptococcus neoformans B66663; test: Antifungal activity in vitro (resazurin susceptibility screen), Inf. F; assay type: cell-based; settings: Cryptococcus neoformans, B66663, Cryptococcus neoformans B66663; 37 °C, 24 hours, resa time 4 hours
Experimental: as §1

[3] = tested on: Candida parapsilosis B66126; test: Antifungal activity in vitro (resazurin susceptibility screen), Inf. D; assay type: cell-based; settings: Lodderomyces parapsilosis, B66126, Candida parapsilosis B66126; 37 °C, 24 hours, resa time 4 hours
Experimental: as §1

[4] = tested on: Scedosporium apiospermum IHEM3817; test: Antifungal activity in vitro (resazurin susceptibility screen), Inf. H; assay type: cell-based; settings: Scedosporium apiospermum, IHEM3817, Scedosporium apiospermum IHEM3817; 37 °C, 48 hours, resa time 17 hours
Experimental: as §1

[5] = tested on: Scedosporium prolificans IHEM21157; test: Antifungal activity in vitro (resazurin susceptibility screen), Inf. I; assay type: cell-based; settings: Lomentospora prolificans, 37 °C, 48 hours, resa time 17 hours
Experimental: as §1

[6] = tested on: Mucor circinelloides IHEM21105; test: Antifungal activity in vitro (resazurin susceptibility screen), Inf. L; assay type: cell-based; settings: 27 °C, 48 hours, resa time 17 hours
Experimental: as §1

[7] = tested on: Rhizomucor miehei IHEM13391; test: Antifungal activity in vitro (resazurin susceptibility screen), Inf. K; assay type: cell-based; settings: Rhizomucor miehei, IHEM13391, Rhizomucor miehei IHEM13391; 37 °C, 48 hours, resa time 17 hours
Experimental: as §1

[8] = tested on: Trichophyton mentagrophytes B70554; test: Antifungal activity in vitro (resazurin susceptibility screen), Inf. G; assay type: cell-based; settings: Trichophyton mentagrophytes, B70554, Trichophyton mentagrophytes B70554; 27 °C, 7 days, resa time 24 hours
Experimental: as §1

Microsporum canis B68128 = test: Antifungal activity in vitro (resazurin susceptibility screen), Inf. B; assay type: cell-based; settings: Microsporum canis, B68128, Microsporum canis B68128; 27 °C, 9 days, resa time 24 hours
Experimental: as §1

Rhizopus oryzae IHEM5223 = test: Antifungal activity in vitro (resazurin susceptibility screen), Inf. J; assay type: cell-based; settings: Rhizopus arrhizus, 37 °C, 24 hours, resa time 6 hours
Experimental: as §1

[9] = tested on: Trichophyton rubrum B68183; test: Antifungal activity in vitro (resazurin susceptibility screen), Inf. C; assay type: cell-based; settings: Trichophyton rubrum, B68183, Trichophyton rubrum B68183; 27 °C, 7 days, resa time 24 hours
Experimental: as §1

[10] = tested on: Sporothrix schenkii B62482; test: Antifungal activity in vitro (resazurin susceptibility screen), Inf. A; assay type: cell-based; settings: Sporothrix, B62482, Sporothrix schenkii B62482; 27 °C, 4 days, resa time 24 hours
Experimental: as §1

SMILES	IC50 [1] [nM]	IC50 [2] [nM]	IC50 [3] [nM]	IC50 [4] [nM]	IC50 [5] [nM]	IC50 [6] [nM]	IC50 [7] [nM]	IC50 [8] [nM]	melting point	IC50 (Microsporum canis B68128) [nM]	IC50 (Rhizopus oryzae IHEM5223) [nM]	IC50 [9] [nM]	IC50 [10] [nM]
Cc1cc(Cl)cc2c1CN=C(c1ccc(C(C)(F)F)cc1)c1cccn1-2 [Compound 16, 9-chloro-4-[4-(1,1-difluoroethyl)phenyl]-7-methyl-6H-pyrrolo[1,2-a][1,4]-benzodiazepine]	1700	724	10700	10200	1200	> 64600	> 64600	1660	89.6 to 91.2 °C	2000	> 64600	617	3800
CC(F)(F)c1ccc(C2=NCc3cccc(Cl)c3-n3cccc32)cc1 [Compound 19, 10-chloro-4-[4-(1,1-difluoroethyl)phenyl]-6H-pyrrolo[1,2-a][1,4]benzodiazepine]	2040	1620	13200	2340	513	> 64600	14500	646	247.5 °C (dec.)	2040	9770	214	2820
CC(F)(F)c1cc(C2=NCc3c(F)cc(F)cc3-n3cccc32)ccc1F [Compound 23, 4-[3-(1,1-difluoroethyl)-4-fluorophenyl]-7,9-difluoro-6H-pyrrolo[1,2-a][1,4]-benzodiazepine]	537	> 64600	3630	182	100	> 64600	> 64600	794	143.2 to 144.3 °C	417	> 64600	129	9550
CC(F)(F)c1cc(C2=NCc3c(Cl)cc(Cl)cc3-n3cccc32)ccc1F [Compound 25, 7,9-dichloro-4-[3-(1,1-difluoroethyl)-4-fluorophenyl]-6H-pyrrolo[1,2-a][1,4]-benzodiazepine]	1020	> 64600	> 64600	407	501	> 64600	> 64600	2190	124.2 to 125.4 °C	1580	> 64600	1260	14100
CC(F)(F)c1cc(C2=NCc3c(Cl)cc(F)cc3-n3cccc32)ccc1F [Compound 26, 7-chloro-4-[3-(1,1-difluoroethyl)-4-fluorophenyl]-9-fluoro-6H-pyrrolo[1,2-a][1,4]-benzodiazepine]	589	> 64600	3800	158	191	> 64600	13500	1200	84.9 to 85.9 °C	468	> 64600	468	10200
Cc1ccc(Cl)c2c1CN=C(c1ccc(C(C)(F)F)cc1)c1cccn1-2 [Compound 28, 10-chloro-4-[4-(1,1-difluoroethyl)phenyl]-7-methyl-6H-pyrrolo[1,2-a][1,4]-benzodiazepine]	≥ 64600	16600	45700	708	2290	> 64600	41700	26900	139.3 to 141.2 °C	14100	> 64600	7410	28200
CC(F)(F)c1ccc(C2=NCc3c(Cl)cccc3-n3cccc32)cc1F [Compound 29, 7-chloro-4-[4-(1,1-difluoroethyl)-3-fluorophenyl]-6H-pyrrolo[1,2-a][1,4]benzodiazepine]	501	> 64600	> 64600	> 64600	> 64600	> 64600	> 64600	191	186.3 to 186.6 °C	110	> 64600	85.1	> 64600

Continued, values first:

IC50 [1] [nM]	IC50 [2] [nM]	IC50 [3] [nM]	IC50 [4] [nM]	IC50 [5] [nM]	IC50 [6] [nM]	IC50 [7] [nM]	IC50 [8] [nM]	melting point	IC50 (Microsporum canis B68128) [nM]	IC50 (Rhizopus oryzae IHEM5223) [nM]	IC50 [9] [nM]	IC50 [10] [nM]	SMILES
501	1410	7760	8910	4570	> 64600	12300	363	170.8 to 171.5 °C	468	> 64600	162	> 64600	CC(F)(F)c1ccc(C2=NCc3c(F)cccc3-n3cccc32)cc1F [Compound 30, 4-[4-(1,1-difluoroethyl)-3-fluorophenyl]-7-fluoro-6H-pyrrolo[1,2-a][1,4]benzodiazepine]
501	295	3470	10500	8710	> 64600	> 64600	1260	162.5 to 164.8 °C	437	> 64600	468	2340	CC(F)(F)c1ccc(C2=NCc3c(Cl)cc(F)cc3-n3cccc32)cc1F [Compound 31, 7-chloro-4-[4-(1,1-difluoroethyl)-3-fluorophenyl]-9-fluoro-6H-pyrrolo[1,2-a][1,4]-benzodiazepine]
2000	1290	2750	> 64600	> 64600	> 64600	> 64600	1660	145.3 to 147.4 °C	1660	> 64600	1660	6170	CC(F)(F)c1ccc(C2=NCc3c(F)cc(Cl)cc3-n3cccc32)cc1 [Compound 32, 9-chloro-4-[4-(1,1-difluoroethyl)phenyl]-7-fluoro-6H-pyrrolo[1,2-a][1,4]benzodiazepine]
